Measured values: patent publication US6107316A, “Method for treating protozoal infections” (priority 1998, dated 2000)
Values after ≈ are worked out from the molar mass of the structure shown.

What was measured:
Giardia lamblia = experiment: in vitro growth inhibitory activity against Giardia lamblia; format: cell-based; conditions: Giardia duodenalis; concentration required to inhibit growth by 50%
Protocol: 35, pp. 2198-2202 (1991). EC50 values for test compounds, expressed in parts per million (ppm), were calculated from dose response curves and are presented in Table 4. As used herein, the terminology "EC50" means the concentration of test compound required to inhibit growth by 50% are compared to a control lacking the test compound. Metronidazole was included as a standard in the tests for comparative purposes.

Leishmania major = experiment: in vitro growth inhibitory activity against L. major promastigotes; format: cell-based
Source text: 35, pp. 2198-2202 (1991).

Entamoeba histolytica = experiment: in vitro growth inhibitory activity against E. histolytica; format: cell-based
Source text: 35, pp. 2198-2202 (1991). Metronidazole was included as a standard in the test for comparative purposes.

Tetrahymena pyriformis = experiment: in vitro growth inhibitory activity against the ciliate Tetrahymena pyriformis; format: cell-based, Tetrahymena pyriformis (ATCC strain 30005); conditions: 24 hours, 25° C., read-out: EC50 Tetrahymena pyriformis
Protocol: Compounds were evaluated for in vitro growth inhibitory activity against the ciliate Tetrahymena pyriformis, which was used as an indicator organism for the Apicomplexia since by several criteria the ciliates and Apicomplexa are closely related (Edlind T. D. et al., Mol. Phylogenet. Evol. vol. 5, pp. 359-367, 1996). T. pyriformis (ATCC strain 30005) was grown in 1 ml ATCC medium 357 at 25° C. in 4 ml polyallomer culture tubes without shaking. Compounds were dissolved in dimethylsufoxide (DMSO) and added to the cultures (containing 3,000 cells/ml) such that the final DMSO concentration was 0.1-0.3%. […] Parasitol. vol. 84, pp. 355-370, 1996) and Cryptosporidium parvum (Arrowood et al., FEMS Microbial. Lett., vol. 136, pp. 245-249, 1996) were tested for comparison.

Toxoplasma gondii [1] = experiment: growth inhibition of T. gondii in L929 host cells ([3H]-uracil incorporation); format: cell-based; conditions: Toxoplasma gondii, L929 host cells, read-out: % Inhibition; for inhibition at 0.5 µg/mL: 0.5 μg/ml; for inhibition at 5 µg/mL: 5.0 μg/ml
Protocol: (§1) Compounds were tested for it vitro growth inhibitory activity against Toxoplasma gondii replication in L929 (L929-ATCC CCL 1, mouse connective tissue) or HFF (human foreskin fibroblast) host cells using the [^3 H]-uracil incorporation technique as follows. Host cells were grown in 96-well flat-bottom microtiter plates at 37° C in a 5% carbon dioxide environment in modified Eagle's medium containing penicillin, streptomycin and 10% fetal equine serum. Wells containing a homogeneous confluent monolayer of host cells were infected with T. gondii tachyzoites at a ratio of 3 parasites per cell (approximately 6×10^4 tachyzoites per well containing 100 μl of medium). […] Two hours post infection, the cultures were washed to remove free parasites and the various dilutions of test compound were added. Cells were subsequently collected at 24, 48 and 72 hours. Four hours prior to each harvesting 50 Al of [^3 H]-uracil (1 μCi) was added. Cells were collected using a cell harvester and incorporated radioactivity was measured using a scintillation counter. […]

Toxoplasma gondii [2] = experiment: growth inhibition of T. gondii in HFF host cells ([3H]-uracil incorporation); format: cell-based; conditions: Toxoplasma gondii, HFF host cells, read-out: % Inhibition; for inhibition at 0.5 µg/mL: 0.5 μg/ml; for inhibition at 5 µg/mL: 5.0 μg/ml
Protocol: as §1

[3] = cytotoxicity towards L929 host cells (Cell Titer 96); conditions: mouse, % Inhibition of host cell growth (values in parenthesis)
Protocol: (§2) Cytotoxicity of the test compounds towards host cells was determined using the Cell Titer 96™ it (Promega Corporation, Madison, Wis.) as follows. Cells were seeded at a concentration of 5×10^3 cells per well containing 100 μl of medium in 96-well flat-bottom microtiter plates and incubated at 37° C. in a 5% carbon dioxide environment for 4 hours. Dilutions of the test compounds prepared as described above were then added, and incubation continued for 24, 48 or 72 hours. Four hours before each of these time points the growth medium containing test compound was replaced with 100 μl of fresh medium followed by addition of 16 μl of the kit dye solution. After incubation at 37° C. for another 4 hours, 100 μl of the kit solubilization/stop solution was added to each well, the contents of the wells were mixed and the plates kept 1 hour at room temperature. The plates were then read spectrophotometrically in a plate reader at a wavelength of 570 nm. […] Atovaquone was included in the test as a standard.

[4] = cytotoxicity towards HFF host cells (Cell Titer 96); conditions: human, % Inhibition of host cell growth (values in parenthesis)
Protocol: as §2

Cryptosporidium parvum = experiment: growth inhibitory activity against C. parvum in host MDBKF5D2 cells (immunofluorescence); format: cell-based; conditions: Cryptosporidium parvum, 48 h
Protocol: Compounds were tested for in vitro growth inhibitory activity against C. parvum grown in host MDBKF5D2 cells and for toxicity towards the host cells as follows. […] To test for toxicity towards the host cells, the media containing test compound (200 μl) were introduced into two wells of a 96 well microtiter plate containing confluent MDBKF5D2 cell monolayers and two wells without monolayers, and incubated at 37° C. in an 8% carbon dioxide environment. After 48 hours, the tetrazolium salt MTS (Owen's solution) and phenazine methosulfate were added to each well at concentrations of 333 μg/ml and 25 μM, respectively. The plate was returned to the incubator in the dark to develop for 2 hours, then 100 μl of each supernatant was transferred to a new microtiter plate and read spectrophotometrically in a plate reader at a wavelength of 490 nm. Percent toxicity was calculated by subtracting the mean optical density (OD) of the drug supernatants from the OD of medium control supernatants (no drug), dividing by the OD of the medium control, and multiplying by 100. To test for growth inhibitory activity against C. parvum, 3×10^4 oocysts per well were incubated in mentioned concentrations of each drug at 37° C. (8% CO2) on confluent MDBKF5D2 cell monolayers in 96 well microtiter plates. After 48 hours, the level of infection in each well was determined by means of an immunofluorescence assay. Percent inhibition of growth was calculated by subtracting the mean parasite count in the wells containing test compound from the mean parasite count in the medium control wells (no test compound), dividing by the mean parasite count in the medium control wells, and multiplying by 100. Paromomycin was included in the test as a standard.

Q: For `CCC(C)(NC(=O)c1cc(Cl)c(N)c(Cl)c1)C(=O)CCl` (centres unmarked) [Compound 1], which EC50 (Giardia lamblia) is on record?
A: The EC50 was 0.06 mg/L (≈ 0.178 µM).

Q: What about the EC50 (Leishmania major) of the same compound?
A: The EC50 was 0.2 mg/L (≈ 0.592 µM).

Q: What about the EC50 (Entamoeba histolytica) of the same compound?
A: Its EC50 is 38 mg/L (≈ 113 µM).

Q: What about the EC50 (Tetrahymena pyriformis) of the same compound?
A: Its EC50 is 0.02 mg/L (≈ 0.0592 µM).

Q: And the inhibition at 0.5 µg/mL (Toxoplasma gondii [1]; L929, 24 h, 24 hours)?
A: Its inhibition at 0.5 µg/mL is 7.8%.

Q: And the inhibition at 5 µg/mL (Toxoplasma gondii [1]; L929, 24 h, 24 hours)?
A: The inhibition at 5 µg/mL was 10.8%.

Q: What about the inhibition at 0.5 µg/mL (Toxoplasma gondii [1]; L929, 48 h, 48 hours) of the same compound?
A: Its inhibition at 0.5 µg/mL is 80.4%.

Q: And the inhibition at 5 µg/mL (Toxoplasma gondii [1]; L929, 48 h, 48 hours)?
A: The inhibition at 5 µg/mL was 75.5%.

Q: And the inhibition at 0.5 µg/mL (Toxoplasma gondii [1]; L929, 72 h, 72 hours)?
A: Its inhibition at 0.5 µg/mL is 95.4%.

Q: And the inhibition at 5 µg/mL (Toxoplasma gondii [1]; L929, 72 h, 72 hours)?
A: Its inhibition at 5 µg/mL is 78.2%.

Q: And the inhibition at 0.5 µg/mL (Toxoplasma gondii [2]; 24 h, 24 hours)?
A: The inhibition at 0.5 µg/mL was 47.6%.

Q: What about the inhibition at 5 µg/mL (Toxoplasma gondii [2]; 24 h, 24 hours) of the same compound?
A: Its inhibition at 5 µg/mL is 88%.

Q: What about the inhibition at 0.5 µg/mL (Toxoplasma gondii [2]; 48 h, 48 hours) of the same compound?
A: Its inhibition at 0.5 µg/mL is 96.1%.

Q: What about the inhibition at 5 µg/mL (Toxoplasma gondii [2]; 48 h, 48 hours) of the same compound?
A: Its inhibition at 5 µg/mL is 99.3%.

Q: And the inhibition at 0.5 µg/mL (Toxoplasma gondii [2]; 72 h, 72 hours)?
A: Its inhibition at 0.5 µg/mL is 91.3%.

Q: And the inhibition at 5 µg/mL (Toxoplasma gondii [2]; 72 h, 72 hours)?
A: Its inhibition at 5 µg/mL is 99.2%.

Q: What about the inhibition at 24 h ([3]; L929, 0.5 μg/ml) of the same compound?
A: Its inhibition at 24 h is 1.5%.

Q: What about the inhibition at 48 h ([3]; L929, 0.5 μg/ml) of the same compound?
A: The inhibition at 48 h was 11.6%.

Q: And the inhibition at 72 h ([3]; L929, 0.5 μg/ml)?
A: Its inhibition at 72 h is 31.3%.

Q: What about the inhibition at 24 h ([3]; L929, 5.0 μg/ml) of the same compound?
A: The inhibition at 24 h was 19.7%.

Q: What about the inhibition at 48 h ([3]; L929, 5.0 μg/ml) of the same compound?
A: Its inhibition at 48 h is 61.8%.

Q: What about the inhibition at 72 h ([3]; L929, 5.0 μg/ml) of the same compound?
A: The inhibition at 72 h was 81.1%.

Q: What about the inhibition at 24 h ([4]; 0.5 μg/ml) of the same compound?
A: The inhibition at 24 h was 1.6%.

Q: What about the inhibition at 48 h ([4]; 0.5 μg/ml) of the same compound?
A: Its inhibition at 48 h is 0%.

Q: What about the inhibition at 72 h ([4]; 0.5 μg/ml) of the same compound?
A: The inhibition at 72 h was 1.4%.

Q: What about the inhibition at 24 h ([4]; 5.0 μg/ml) of the same compound?
A: Its inhibition at 24 h is 14.7%.

Q: And the inhibition at 48 h ([4]; 5.0 μg/ml)?
A: The inhibition at 48 h was 13.5%.

Q: What about the inhibition at 72 h ([4]; 5.0 μg/ml) of the same compound?
A: Its inhibition at 72 h is 47.6%.

Q: And the inhibition at 0.1 µM (Cryptosporidium parvum; 0.1 μM)?
A: Its inhibition at 0.1 µM is 23.1%.

Q: And the inhibition at 1 µM (Cryptosporidium parvum; 1.0 μM)?
A: The inhibition at 1 µM was 29.2%.

Q: And the inhibition at 10 µM (Cryptosporidium parvum; 10 μM)?
A: The inhibition at 10 µM was 34.2%.

Q: What about the inhibition at 100 µM (Cryptosporidium parvum; 100 μM) of the same compound?
A: The inhibition at 100 µM was 81.1%.
